Columns and labels:
Type in all cases: in vivo, rat
SHR and WKY rats [1] = experiment: Maximal TGF responses (proximal stop flow pressure) during orthograde loop of Henle microperfusion of 7-NI (Series 4); details: for PSF difference 0-40 nl·min^−1 (maximal TGF response) / PSF during LH perfusion at 0 nl·min^−1 / PSF during LH perfusion at 40 nl·min^−1: ATF+7-NI 10^−4 M, mean ± SEM
Procedure: (§1) Series 4. Effects of inhibition of bNOS on maximal TGF responses in SHR and WKY. These experiments further examined the SHR hypertension model and whether the enhanced TGF of the SHR kidney is due to a blunted generation of NO by bNOS in the macula densa or whether NOS inhibition is diminished in the SHR model. Groups of SHR and age-matched WKY rats were prepared for in vivo micropuncture, microperfusion, and TGF studies as described in detail previously. In brief, animals were anesthetized with thiobarbital (Inactin, 100 mg·kg^−1; Research Biochemicals, Inc., Natick, Mass.). A catheter was placed in a jugular vein for fluid infusion and in a femoral artery for recording of mean arterial pressure (MAP) from the electrically damped output of a pressure transducer (Statham, Inc.). A tracheotomy tube was inserted and the animals were allowed to breathe spontaneously. The left kidney was exposed by a flank incision, cleaned of connective tissue, and stabilized in a Lucite cup. This kidney was bathed in 0.154 M NaCl maintained at 37° C. After completion of surgery, rats were infused with a solution of 0.154 M NaCl and 1% albumin at 1.5 ml·h^−1 to maintain a euvolemic state. Micropuncture studies were begun after 60 min for stabilization.
(§2) For orthograde microperfusion of the loop of Henle (LH), a micropipette (8 μm OD) containing artificial tubular fluid (ATF) stained with FD&C dye was inserted into a late proximal tubule. Injections of the colored ATF identified the nephron and the direction of flow. An immobile bone wax block was inserted into this micropuncture site via a micropipette (10-15 μm) and connected to a hydraulic drive (Trent Wells, Inc., LaJolla, Calif.) to halt tubular fluid flow. A perfusion micropipette (6-8 μm) containing ATF and test compounds or vehicle was inserted into the proximal tubule downstream from the wax block and connected to a nanoliter perfusion pump (WPI, Sarasota, Fla.). A pressure micropipette (1-2 μm) was inserted into the proximal tubule upstream from the wax block to measure proximal stop flow pressure (PSF). Changes in PSF are an index of changes in glomerular capillary hydraulic pressure (PGC). Measurements of PSF were made in each nephron during zero loop perfusion and during perfusion with ATF at 40 nl·min^−1, which produces a maximal TGF response, defined as the difference between PSF values recorded during perfusion of the loop with ATF at 0 and 40 nl·min^−1.
The maximal TGF responses were determined in SHR (n=4) and WKY rats (n=4) to perfusion of the LH with ATF+vehicle and contrasted with the maximal TGF responses during perfusion with ATF+7-nitroindazole (7-NI; 10^−4 M).

SHR rats = experiment: TGF response to 7-NI microperfused into the macula densa before and during Tempol microperfusion into efferent arterioles
Text: This also implies that it had normalized the action of NO in this setting, thereby correcting the defect in the NO action in hypertension and restoring normal vascular control. This is filly consistent with its action on a free radical scavenging agent that thereby protects NO from radical attack.

SHR [2] = experiment: Role of NO in the MAP response to constant Tempol infusion (L-NAME or norepinephrine pretreatment); details: for Change in MAP at 50 min (time control): separate group of SHR, NS
SHR [3] = experiment: TGF response to SNAP microperfused into the macula densa during Tempol microperfusion via the efferent arteriole
Text: Two additional microperfusion studies were undertaken to assess the mechanism of Tempol action in SHR. […] A dose of 10^−6 M […] (SNAP), a NO donor compound, was microperfused into the macula densa of the rats. […] Other NO donor compounds include nitroprusside and nitrates.

SHR and WKY rats [4] = experiment: Maximal TGF responses during orthograde microperfusion of L-arginine (Series 5); details: for PSF difference 0-40 nl·min^−1 (maximal TGF response) / PSF during LH perfusion at 0 nl·min^−1 / PSF during LH perfusion at 40 nl·min^−1: ATF+L-arginine 10^−3 M, mean ± SEM
Procedure: as §1, §2
Series 5: Maximal TGF responses during microperfusion of L-arginine in SHR and WKY. L-arginine had previously been shown not to lower blood pressure or the glomerular filtration rate in the SHR model. However, L-arginine can restore a TGF response to NOS blockade in tested rats adapted to low salt intake. Therefore, the role of L-arginine was tested in the SHR model. This series examined the effect of a reduced delivery of L-arginine to the macula densa on NO generation, as assessed in Series 4. Groups of SHR (n=4) and WKY rats (n=3) were prepared for microperfusion. PSF was recorded during orthograde LH perfusion at 0 and 40 nl·min^−1 with ATF+vehicle and ATF+L-arginine (10^−3 M). (Previous studies had shown that this was a maximally effective dose.)

O=[N+]([O-])c1cccc2cn[nH]c12 [7-NI, 7-nitroindazole]
Effect on TGF responses (SHR and WKY rats [1]; SHR, 7-NI added to orthograde LH perfusate): no significant effects
PSF difference 0-40 nl·min^−1 (maximal TGF response) (SHR and WKY rats [1]; SHR): 12.5 ± 0.6 mm Hg
PSF during LH perfusion at 0 nl·min^−1 (SHR and WKY rats [1]; SHR): 41.0 ± 1.0 mm Hg
PSF during LH perfusion at 40 nl·min^−1 (SHR and WKY rats [1]; SHR): 29.3 ± 0.7 mm Hg
Average increase in maximal TGF response (SHR and WKY rats [1]; WKY, 7-NI added to orthograde LH perfusate): 39%
PSF difference 0-40 nl·min^−1 (maximal TGF response) (SHR and WKY rats [1]; WKY): 13.2 ± 0.7 mm Hg
PSF during LH perfusion at 0 nl·min^−1 (SHR and WKY rats [1]; WKY): 38.1 ± 0.8 mm Hg
PSF during LH perfusion at 40 nl·min^−1 (SHR and WKY rats [1]; WKY): 25.0 ± 1.2 mm Hg
Increase in TGF in the presence of 7-NI (SHR rats; 7-NI 10^−4 M during Tempol 10^−4 M microperfusion into efferent arterioles): greater than 25%
TGF response to 7-NI before Tempol (SHR rats; 7-NI 10^−4 M into macula densa, before Tempol): no significant TGF response

NC[C@H](O)c1ccc(O)c(O)c1 [Norepinephrine, norepinephrine]
Increase in MAP (SHR [2]; SHR, norepinephrine 31 nmol·kg^−1·min^−1): 15%
MAP after norepinephrine infusion (SHR [2]; SHR, norepinephrine 31 nmol·kg^−1·min^−1, from 164±4): 188±7 mm Hg
Change in MAP at 50 min (time control) (SHR [2]; norepinephrine infusion): 2.0±0.0%

CC(=O)N[C@H](C(=O)O)C(C)(C)SN=O (racemic) [SNAP, 5-nitroacetylpenacillamine]
Blunting of TGF response (SHR [3]; SNAP 10^−6 M during Tempol 10^−4 M microperfusion via efferent arteriole, p<0.01): more than 25%
Effect of SNAP dose alone on TGF (SHR [3]; SNAP 10^−6 M into macula densa, without Tempol): just subthreshold

N=C(N)NCCC[C@H](N)C(=O)O [L-arginine]
PSF difference 0-40 nl·min^−1 (maximal TGF response) (SHR and WKY rats [4]; SHR): 10.6 ± 0.7 mm Hg
PSF during LH perfusion at 0 nl·min^−1 (SHR and WKY rats [4]; SHR): 41.0 ± 1.2 mm Hg
PSF during LH perfusion at 40 nl·min^−1 (SHR and WKY rats [4]; SHR): 30.4 ± 0.7 mm Hg
Effect on TGF responses (SHR and WKY rats [4]; SHR, L-arginine added to orthograde LH perfusate): no significant effects
PSF difference 0-40 nl·min^−1 (maximal TGF response) (SHR and WKY rats [4]; WKY): 6.3 ± 0.4 mm Hg
PSF during LH perfusion at 0 nl·min^−1 (SHR and WKY rats [4]; WKY): 36.1 ± 0.7 mm Hg
PSF during LH perfusion at 40 nl·min^−1 (SHR and WKY rats [4]; WKY): 29.8 ± 0.5 mm Hg
Average blunting of TGF responses (SHR and WKY rats [4]; WKY, L-arginine added to orthograde LH perfusate): 18%

COC(=O)[C@@H](N)CCCNC(=N)N[N+](=O)[O-] [L-NAME]
Increase in MAP (SHR [2]; SHR, twenty minutes of L-NAME infusion alone): 18%
MAP after L-NAME infusion alone (SHR [2]; SHR, twenty minutes of L-NAME infusion, from 158±11): 187±8 mm Hg
Change in MAP at 50 min (time control) (SHR [2]; L-NAME infusion): 0.3±3.3%

From patent publication US6617337B1, “Use of nitroxides for the treatment of essential hypertension” (Georgetown University, priority 1997, dated 2003)
